# Test results published in patent publication US20250163104A1, “MACROCYCLIC IMMUNOMODULATORS” (priority 2021, published 2025).
# *1 amine or outer side, *2 acyl side, *3 side chain or, on linkers, in order; H or OH if unused. Where a SMILES comes first, the peptide text is derived from it. Bridges are numbered along the chain shown (N, C = ends). [ ]: non-standard residue; d: D form. The star is where a group is joined. ξ: configuration not given here. X3 = O=C([C@H](CCCNC[C@@H](O)[C@H](O)[C@H](O)[C@@H](O)[C@H](O)CO)N[*:1])[*:2]; Phe(4-COOH) = N[C@@H](Cc1ccc(C(=O)O)cc1)C(=O)O; Bip = N[C@@H](Cc1ccc(-c2ccccc2)cc1)C(=O)O; Phe(3-Cl) = N[C@@H](Cc1cccc(Cl)c1)C(=O)O; Phe(3-Me) = Cc1cccc(C[C@H](N)C(=O)O)c1; Val(3-OH) = CC(C)(O)[C@H](N)C(=O)O; Benzoyl(4-F) = O=C(c1ccc(F)cc1)*; 4Pal = N[C@@H](Cc1ccncc1)C(=O)O; Cha = N[C@@H](CC1CCCCC1)C(=O)O; Cit = NC(=O)NCCC[C@H](N)C(=O)O; Ahp(2) = CCCCC[C@H](N)C(=O)O; Carboxymethyl = O=C(O)C*; Orn = NCCC[C@H](N)C(=O)O; Pra = C#CC[C@H](N)C(=O)O; Dab = NCC[C@H](N)C(=O)O; Nva = CCC[C@H](N)C(=O)O; Dap = NC[C@H](N)C(=O)O; ξPra = C#CCC(N)C(=O)O
# Target: T1, human PD-1 / PD-L1-Ig binding on Jurkat cell line over-expressing human PD-1 (Jurkat-PD-1) (Homo sapiens, UniProt Q15116)
# T1 construct: expressed in transfected cells; host or cells: Jurkat
# Assay: Jurkat-PD-1 Cell Binding High-Content Screening Assay (CBA)
# Type: cell-based
# Conditions: Jurkat-PD-1 cells, PE-labeled PD-L1-Ig 20 nM final; read-out: Jurkat HPD1_PDL1 IC50
# Outline: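 PE-PD-L1-Ig 20 nM final; cells in DMEM/10% FCS; cpd pre-incubation 2 h, 37° C; ligand 1 h; PFA fix + Hoechst 33342; high-content imaging read-out.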
# T1 sequence (Q15116 25-288): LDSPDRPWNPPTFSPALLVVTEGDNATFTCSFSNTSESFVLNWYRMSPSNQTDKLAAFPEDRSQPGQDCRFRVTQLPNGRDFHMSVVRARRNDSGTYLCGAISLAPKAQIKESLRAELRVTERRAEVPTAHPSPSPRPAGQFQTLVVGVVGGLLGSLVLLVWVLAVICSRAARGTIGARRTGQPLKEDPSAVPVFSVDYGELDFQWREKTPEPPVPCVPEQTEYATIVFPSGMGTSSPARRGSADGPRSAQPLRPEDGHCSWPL
row,Structure (SMILES),IC50
1,C#CCC(NC(=O)[C@H](CN)NC(=O)[C@@H]1CSCC(=O)N[C@@H](Cc2ccncc2)C(=O)N[C@@H](Cc2ccc(OCC(=O)O)cc2)C(=O)N[C@@H](CC(=O)O)C(=O)N[C@@H](Cc2c[nH]c3ccccc23)C(=O)N[C@@H](C(C)C)C(=O)N[C@@H](Cc2ccc(-c3ccccc3)cc2)C(=O)N[C@@H]([C@@H](C)CC)C(=O)N[C@@H](CCCN)C(=O)N[C@H](CC(C)C)C(=O)N[C@@H](CCN)C(=O)N[C@@H](CC(C)C)C(=O)N[C@@H](C(C)C)C(=O)N[C@@H]([C@@H](C)O)C(=O)N1)C(N)=O (stereo partly drawn) [Compound 1764] ({CH2CO}-[4Pal]Y(Carboxymethyl)DWV[Bip]I[Orn][dL][Dab]LVTC[Dap][ξPra]-NH2; thioether N-14),33.1 nM
2,C#CC[C@H](NC(=O)[C@@H]1CSCC(=O)N[C@@H](CCC)C(=O)N[C@@H](Cc2ccc(OCC(=O)O)cc2)C(=O)N[C@@H](CC(=O)O)C(=O)N[C@@H](Cc2cccc(C)c2)C(=O)N[C@@H](Cc2ccc(OCC(=O)O)cc2)C(=O)N[C@@H](Cc2ccc(-c3ccccc3)cc2)C(=O)N[C@@H](Cc2ccc(OCC(=O)O)cc2)C(=O)N[C@@H](CCCNC[C@@H](O)[C@H](O)[C@H](O)[C@@H](O)[C@H](O)CO)C(=O)N[C@H](CC(C)C)C(=O)N[C@@H](CCC)C(=O)N[C@@H](CC2CCCCC2)C(=O)N[C@@H](C(C)C)C(=O)N[C@@H](CCC(=O)O)C(=O)N1)C(=O)O [Compound 2698] ({CH2CO}-[Nva]Y(Carboxymethyl)D[Phe(3-Me)]Y(Carboxymethyl)[Bip]Y(Carboxymethyl)[X3][dL][Nva][Cha]VEC[Pra]-OH; thioether N-14),129 nM
3,CC(C)C[C@@H]1NC(=O)[C@H](CCN)NC(=O)[C@@H](CC(C)C)NC(=O)[C@H](CC(=O)O)NC(=O)[C@H](C(C)C)NC(=O)[C@H](Cc2ccc(-c3ccccc3)cc2)NC(=O)[C@H](C(C)C)NC(=O)[C@H](Cc2c[nH]c3ccccc23)NC(=O)[C@H](CC(=O)O)NC(=O)[C@H](Cc2ccc(O)cc2)NC(=O)[C@H](CC(N)=O)NC(=O)CSC[C@@H](C(=O)N[C@@H](C)C(N)=O)NC(=O)[C@H]([C@@H](C)O)NC(=O)[C@H](C(C)C)NC1=O [Compound 1033] ({CH2CO}-NYDWV[Bip]VD[dL][Dab]LVTCA-NH2; thioether N-14),29.4 nM
4,Cc1cccc(C[C@@H]2NC(=O)[C@H](CC(=O)O)NC(=O)[C@H](Cc3ccc(C(=O)O)cc3)NC(=O)[C@H](Cc3ccncc3)NC(=O)CSC[C@@H](C(=O)N[C@@H](CCN)C(N)=O)NC(=O)[C@H](CO)NC(=O)[C@H](C(C)(C)O)NC(=O)[C@H](CC3CCCCC3)NC(=O)[C@H](CCN)NC(=O)[C@@H](CC(C)C)NC(=O)[C@H](CCCN)NC(=O)[C@H](Cc3ccc(C(=O)O)cc3)NC(=O)[C@H](Cc3ccc(-c4ccccc4)cc3)NC(=O)[C@H](Cc3ccc(OCC(=O)O)cc3)NC2=O)c1 [Compound 2661] ({CH2CO}-[4Pal][Phe(4-COOH)]D[Phe(3-Me)]Y(Carboxymethyl)[Bip][Phe(4-COOH)][Orn][dL][Dab][Cha][Val(3-OH)]SC[Dab]-NH2; thioether N-14),201 nM
5,CCCCC[C@@H]1NC(=O)[C@H](Cc2c[nH]c3ccccc23)NC(=O)[C@H](CC(=O)O)NC(=O)[C@H](Cc2ccc(OCC(=O)O)cc2)NC(=O)[C@H](CN)NC(=O)CSC[C@@H](C(=O)N[C@@H](C)C(N)=O)NC(=O)[C@H]([C@@H](C)O)NC(=O)[C@H](C(C)C)NC(=O)[C@H](CC2CCCCC2)NC(=O)[C@H](CCN)NC(=O)[C@@H](CC(C)C)NC(=O)[C@H](CCCN)NC(=O)[C@H](CCCNC(N)=O)NC(=O)[C@H](Cc2ccc(-c3ccccc3)cc2)NC1=O [Compound 1360] ({CH2CO}-[Dap]Y(Carboxymethyl)DW[Ahp(2)][Bip][Cit][Orn][dL][Dab][Cha]VTCA-NH2; thioether N-14),10.8 nM
6,CC(C)C[C@@H]1NC(=O)[C@H](CCN)NC(=O)[C@@H](CC(C)C)NC(=O)[C@H](CCN)NC(=O)[C@H](CCC(=O)O)NC(=O)[C@H](Cc2ccc(-c3ccccc3)cc2)NC(=O)[C@H](C(C)C)NC(=O)[C@H](Cc2c[nH]c3ccccc23)NC(=O)[C@H](CC(=O)O)NC(=O)[C@H](Cc2ccncc2)NC(=O)[C@H](CN)NC(=O)CSC[C@@H](C(=O)N[C@@H](C)C(N)=O)NC(=O)[C@H](CO)NC(=O)[C@H](C(C)C)NC1=O [Compound 1267] ({CH2CO}-[Dap][4Pal]DWV[Bip]E[Dab][dL][Dab]LVSCA-NH2; thioether N-14),99.9 nM
7,CC(C)C[C@@H]1NC(=O)[C@H](Cc2c[nH]c3ccccc23)NC(=O)[C@H](CC(=O)O)NC(=O)[C@H](Cc2ccc(O)cc2)NC(=O)[C@H](Cc2ccccc2)NC(=O)CSC[C@@H](C(=O)N[C@@H](C)C(N)=O)NC(=O)[C@H]([C@@H](C)O)NC(=O)[C@H](C(C)C)NC(=O)[C@H](CC(C)C)NC(=O)[C@H](CCN)NC(=O)[C@@H](C)NC(=O)[C@H](CCN)NC(=O)[C@H](C(C)C)NC(=O)[C@H](Cc2ccc(-c3ccccc3)cc2)NC1=O [Compound 1105] ({CH2CO}-FYDWL[Bip]V[Dab][dA][Dab]LVTCA-NH2; thioether N-14),102 nM
8,CC(C)C[C@@H]1NC(=O)[C@H](Cc2c[nH]c3ccccc23)NC(=O)[C@H](CC(=O)O)NC(=O)[C@H](Cc2ccncc2)NC(=O)[C@H](CN)NC(=O)CSC[C@@H](C(=O)NCC(N)=O)NC(=O)[C@H](CO)NC(=O)[C@H](C(C)C)NC(=O)[C@H](CC2CCCCC2)NC(=O)[C@H](CC(N)=O)NC(=O)[C@@H](CC(C)C)NC(=O)[C@H](CCCN)NC(=O)[C@H](C(C)C)NC(=O)[C@H](Cc2ccc(-c3ccccc3)cc2)NC1=O [Compound 1337] ({CH2CO}-[Dap][4Pal]DWL[Bip]V[Orn][dL]N[Cha]VSCG-NH2; thioether N-14),27 nM
9,CC[C@H](C)[C@@H]1NC(=O)[C@H](Cc2ccc(-c3ccccc3)cc2)NC(=O)[C@H](C(C)C)NC(=O)[C@H](Cc2c[nH]c3ccccc23)NC(=O)[C@H](CC(=O)O)NC(=O)[C@H](Cc2ccc(C(=O)O)cc2)NC(=O)[C@H](Cc2ccc(OCC(=O)O)cc2)NC(=O)CSC[C@@H](C(=O)N[C@@H](C)C(N)=O)NC(=O)[C@H]([C@@H](C)O)NC(=O)[C@H](C(C)C)NC(=O)[C@H](Cc2ccccc2)NC(=O)[C@H](CCN)NC(=O)[C@@H](CC(C)C)NC(=O)[C@H](CCCN)NC1=O [Compound 1659] ({CH2CO}-Y(Carboxymethyl)[Phe(4-COOH)]DWV[Bip]I[Orn][dL][Dab]FVTCA-NH2; thioether N-14),9.1 nM
10,Cc1cccc(C[C@@H]2NC(=O)[C@H](CC(=O)O)NC(=O)[C@H](Cc3ccc(OCC(=O)O)cc3)NC(=O)[C@H](CCCNC(=N)N)NC(=O)CSC[C@@H](C(N)=O)NC(=O)[C@H]([C@@H](C)O)NC(=O)[C@H](C(C)C)NC(=O)[C@H](CC3CCCCC3)NC(=O)[C@H](CCN)NC(=O)[C@@H](CC(C)C)NC(=O)[C@H](CCCN)NC(=O)[C@H](CCCNC(=O)c3ccc(F)cc3)NC(=O)[C@H](Cc3ccc(-c4ccccc4)cc3)NC(=O)[C@H](Cc3ccc(O)cc3)NC2=O)c1 [Compound 2052] ({CH2CO}-RY(Carboxymethyl)D[Phe(3-Me)]Y[Bip][Orn](Benzoyl(4-F))[Orn][dL][Dab][Cha]VTC-NH2; thioether N-14),145 nM
11,CC(C)C[C@H]1NC(=O)[C@H](CCCN)NC(=O)[C@H](CCC(=O)O)NC(=O)[C@H](Cc2ccc(-c3ccccc3)cc2)NC(=O)[C@H](C(C)C)NC(=O)[C@H](Cc2cccc(Cl)c2)NC(=O)[C@H](CC(=O)O)NC(=O)[C@H](Cc2ccc(OCC(=O)O)cc2)NC(=O)[C@H](Cc2ccccc2)NC(=O)CSC[C@@H](C(=O)N[C@@H](C)C(N)=O)NC(=O)[C@H]([C@@H](C)O)NC(=O)[C@H](C(C)C)NC(=O)[C@H](CC2CCCCC2)NC(=O)[C@H](CCN)NC1=O [Compound 1488] ({CH2CO}-FY(Carboxymethyl)D[Phe(3-Cl)]V[Bip]E[Orn][dL][Dab][Cha]VTCA-NH2; thioether N-14),10.6 nM
12,C#CC[C@H](NC(=O)[C@@H]1CSCC(=O)N[C@@H](CCC)C(=O)N[C@@H](Cc2ccc(OCC(=O)O)cc2)C(=O)N[C@@H](CC(=O)O)C(=O)N[C@@H](Cc2cccc(C)c2)C(=O)N[C@@H](Cc2ccc(OCC(=O)O)cc2)C(=O)N[C@@H](Cc2ccc(-c3ccccc3)cc2)C(=O)N[C@@H](Cc2ccc(OCC(=O)O)cc2)C(=O)N[C@@H](CCCN)C(=O)N[C@H](CC(C)C)C(=O)N[C@@H](CCN)C(=O)N[C@@H](CC2CCCCC2)C(=O)N[C@@H](C(C)C)C(=O)N[C@@H](CCC(=O)O)C(=O)N1)C(=O)O [Compound 2702] ({CH2CO}-[Nva]Y(Carboxymethyl)D[Phe(3-Me)]Y(Carboxymethyl)[Bip]Y(Carboxymethyl)[Orn][dL][Dab][Cha]VEC[Pra]-OH; thioether N-14),50.5 nM
13,Cc1cccc(C[C@@H]2NC(=O)[C@H](CC(=O)O)NC(=O)[C@H](Cc3ccc(OCC(=O)O)cc3)NC(=O)[C@H](Cc3ccncc3)NC(=O)CSC[C@@H](C(=O)NCC(N)=O)NC(=O)[C@H](CO)NC(=O)[C@H](C(C)C)NC(=O)[C@H](CC(C)C)NC(=O)[C@H](CCN)NC(=O)[C@@H](CC(C)C)NC(=O)[C@H](CCCN)NC(=O)[C@H](C(C)C)NC(=O)[C@H](Cc3ccc(-c4ccccc4)cc3)NC(=O)[C@H](CC(C)C)NC2=O)c1 [Compound 1263] ({CH2CO}-[4Pal]Y(Carboxymethyl)D[Phe(3-Me)]L[Bip]V[Orn][dL][Dab]LVSCG-NH2; thioether N-14),6.2 nM
14,CCC[C@@H]1NC(=O)CSC[C@@H](C(=O)N[C@@H](CCN)C(N)=O)NC(=O)[C@H](CO)NC(=O)[C@H](C(C)(C)O)NC(=O)[C@H](CC2CCCCC2)NC(=O)[C@H](CCN)NC(=O)[C@@H](CC(C)C)NC(=O)[C@H](CCCN)NC(=O)[C@H](Cc2ccc(OCC(=O)O)cc2)NC(=O)[C@H](Cc2ccc(-c3ccccc3)cc2)NC(=O)[C@H](Cc2ccc(OCC(=O)O)cc2)NC(=O)[C@H](Cc2cccc(C)c2)NC(=O)[C@H](CC(=O)O)NC(=O)[C@H](Cc2ccc(C(=O)O)cc2)NC1=O [Compound 2080] ({CH2CO}-[Nva][Phe(4-COOH)]D[Phe(3-Me)]Y(Carboxymethyl)[Bip]Y(Carboxymethyl)[Orn][dL][Dab][Cha][Val(3-OH)]SC[Dab]-NH2; thioether N-14),4.2 nM
